Source: patent JP2017128553A, “抗癌剤、抗癌剤の制御方法” (IHI Corp, priority 2016, dated 2017)

Experiment: MRI造影効果: MRI contrast effect of solutions (T1- and T2-weighted, 7.0T)
Format: physicochemical
Settings: aqueous solution, 0, 1.3, 2.5, 5mM, T1- and T2-weighted images, Fig. 6(C)

In the case of `Cc1ccc(Nc2nccc(N(C)c3ccc4c(C)n(C)nc4c3)n2)cc1S(N)(=O)=O` [比較例1, 2-メチル-5-[[4-[メチル(2,3-ジメチル-2H-インダゾール-6-イル)アミノ]ピリミジン-2-イル]アミノ]ベンゼンスルホンアミド], the MRI image appearance is reported as “いずれの濃度においても白色の高シグナル”.
